Measurements published in publication PMC10045534, “Preparation and Evaluation of 6-Gingerol Derivatives as Novel Antioxidants and Antiplatelet Agents” (Antioxidants, 2023).

Key:
PAMPA-BBB permeability = format: in vitro ADME; details: after 4 h at 37 °C in PBS, pH 7.4, mean ± SEM, n = 3; for Papp at 4 h, 500 μM: PAMPA, read-out: PAMPA-BBB Pe
Procedure: (§1) Preparative purifications over RP-HPLC were performed on a Kinetex XB C18 (5 μm, 250 × 21.2 mm) column on an Armen Spot Prep II integrated HPLC purification system (Gilson, Middleton, WI, USA) with dual-wavelength detection, with an adequately chosen combination of acetonitrile–water, and a flow rate of 15 mL/min. The purity of the compounds obtained was determined by RP-HPLC analyses on a system of two Jasco PU 2080 pumps, a Jasco AS-2055 Plus intelligent sampler connected to a JASCO LC-Net II/ADC equipped with a Jasco MD-2010 Plus PDA detector (Jasco International Co. Ltd., Hachioji, Tokyo, Japan) utilizing a Kinetex C-18 (5 μm, 250 × 4.6 mm) column (Phenomenex Inc., Torrance, CA, USA) and applying a gradient of 30%–100% aqueous AcN in 30 min followed by 100% ACN for 10 min with a flow rate of 1 mL/min. Analysis of samples from the PAMPA and kinetic solubility assays was performed the same way, by using 3-point calibrations and integrating each compound at its UV absorption maximum.
Blood–brain barrier-specific (BBB) permeability measurements were carried out us- ing the PAMPA-BBB model. […] The solutions were sonicated for 10 min at room temperature. To prepare the artificial BBB-specific membrane, 16 mg BPLE were dissolved in 600 μL of n-dodecane:n-hexane (25:75). Each well of the donor plate (MultiscreenTM-IP, MAIPNTR10, pore size […], Merck kGaA) was coated with 5 μL lipid solution and fitted into the acceptor plate containing 300 μL PBS (pH 7.4) with 5% DMSO, and 150–150 μL of the PBS solutions (made from the DMSO stock solutions) were placed on the donor plate’s artificial membrane. The sandwich plate system was covered with a tissue of wet paper and a plastic lid to avoid evaporation of the solvent, and it was incubated at 37 °C for 4 h. In the end, the initial 500 μM solutions ( cD0 ), the donor ( cDt ) and acceptor solution ( cAt ) were analysed by HPLC-UV (see Section 2.1). BBB permeability was calculated using the effective permeability equation used for iso-pH conditions described by A. Avdeef as follows. (2) Pe=−2.303/A·t−τss·1/1+rv·lg−rv+1+rv/1−MR·cDt/cD0 (3) MR=1−cDt/cD0−VAcAt/VDcD0 where A is the filter area (0.3 cm^2), VD and VA are the volumes in the donor (0.15 cm^3) and acceptor phase (0.3 cm^3), t is the incubation time (s), τss is the time to reach steady state (s), cDt is the concentration of the compound in the donor phase at time point t (mol/cm^3), cD0 is the concentration of the compound in the donor phase at time point zero (mol/cm^3), cAt is the concentration of the compound in the acceptor phase at time point t (mol/cm^3), rv is the aqueous compartment volume ratio (VD/VA).

washed human platelets = assay: Arachidonic acid-induced platelet aggregation (turbidimetric aggregometer); format: cell-based; details: for IC50: Platelet, 0.05 h, washed human platelets treated 3 min, then arachidonic acid (100 μM), mean ± SEM, n = 3, read-out: Antiplatelet IC50
Procedure: (§2) All bioactivity data processing, including the calculation of inhibition percentage, mean and corresponding standard error of the mean (SEM), and IC50 values, was performed by GraphPad Prism 8.0 (La Jolla, CA, USA). IC50 values were calculated from the sigmoidal dose–response curves obtained by the log(inhibitor) vs. response and variable slope (DPPH assay) or the log(inhibitor) vs. normalised response and variable slope nonlinear regression model. On the results obtained, no statistical evaluation was performed; instead, differences greater than two-fold were considered relevant. Plotting of the antiplatelet and COX-1 inhibitory IC50 values and the linear regression of the data was performed by Microsoft Excel.
Human platelet suspension (3 × 10^8/mL in Tyrode’s buffer) was prepared as previously described. The protocol for this study was approved by the institutional review board of Kaohsiung Medical University Hospital (Kaohsiung City, Taiwan). Platelets pre-treated with DMSO (vehicle control) or test compounds were stimulated with arachidonic acid (AA), and platelet aggregation was measured using turbidimetric aggregometer (Chrono-Log Co., Havertown, PA, USA) at 37 °C under stirring conditions (1200 rpm).

[1] = DPPH free radical scavenging assay; details: for IC50: 30 min, room temperature, MeOH, mean ± SEM, n = 2, read-out: DDPH IC50
Procedure: as §2
DPPH (1,10-diphenyl-2-picrylhydrazyl) was purchased from Thermo Fisher Scientific. DPPH free radical scavenging assay was performed with some modifications based on the method by previous study. Briefly, in a 96-well microplate, microdilutions of samples (100 µL, starting from 200 µM in HPLC grade MeOH) were made and 100 µL of DPPH reagent (100 µM in MeOH) was added. After 30 min at room temperature in the dark, the absorbance was measured at 550 nm using a FluoStar Optima plate reader (software version 2.20R2, BMG Labtech Ortenberg, Germany). For the blank control, MeOH was used. The scavenging activity was calculated as Inhibition (%) = (A0 − As)/A0 × 100, and IC50 values were calculated by GraphPad Prism 8.0 (La Jolla, CA, USA).

[2] = Kinetic aqueous solubility in PBS pH 7.4; format: physicochemical; details: after 2 h at 37 °C in PBS, 500 μM target concentration, mean ± SEM, n = 3; for solubility kinetic at 2 h: PBS (pH 7.4), 37 °C, pH 7.4, aqueous buffer, kinetic from dmso stock
Procedure: as §1
In a 96-well polypropylene plate (Greiner Bio-One, Kremsmünster, Austria), 15 μL stock solutions were added to 285 μL PBS (pH 7.4) to make starting donor solution with 500 μM as target concentration. For each sample, 3 replicates were measured. The samples were covered and shaken at 37 °C, 300 rpm for 2 h (Heidolph Titramax 1000, Heidolph Instruments GmbH & Co. KG, Schwabach, Germany). After that, each sample was transferred into a filter plate (MSSBLPC, Multiscreen Filter plate, Merck kGaA) and filtered (Vaccum Manifold, Merck kGaA, Darmstadt, Germany). The filtrates were transferred into HPLC vials, and acetonitrile (AcN) was added to aliquot to avoid precipitation. The final solvent ratio was AcN:PBS (70:30). Filtrate concentration was determined by HPLC-UV (see Section 2.1) using 3-points calibration.

| Compound | Papp at 4 h, 500 μM (PAMPA-BBB permeability) | PAMPA-BBB MR (%) (PAMPA-BBB permeability) | PAMPA-BBB Pe (PAMPA-BBB permeability) | times weaker antiplatelet effect than the most promising compounds (washed human platelets; AA-induced platelet aggregation, ratio of IC50 values) | IC50 (washed human platelets) | IC50 [1] | solubility kinetic at 2 h [2] | DPPH scavenging activity (in words) [1] | Kinetic Solubility [2] | antiplatelet activity (in words) (washed human platelets; AA-induced platelet aggregation) |
| --- | --- | --- | --- | --- | --- | --- | --- | --- | --- | --- |
| CCCCC[C@H](O)CC(=O)CCc1ccc(O)c(OC)c1 [Compound 1, (S)-5-hydroxy-1-(4-hydroxy-3-methoxyphenyl)decan-3-one] | 3.52 ± 0.24 ×10⁻⁶ cm/s | 23.8 ± 1.5% | ≥ 25 ·10^−7 cm/s | up to 22 times | 45.9 ± 5.1 µM | 8.92 ± 0.46 µM | – | – | – | – |
| CCCCC/C=C/C(=O)CCc1ccc(O)c(OC)c1 [Compound 2, 6-shogaol] | 3.17 ± 0.36 ×10⁻⁶ cm/s | 20.9 ± 3.9% | ≥ 25 ·10^−7 cm/s | – | 2.8 ± 0.5 µM | 11.4 ± 0.49 µM | > 100 µM | – | – | – |
| CCCCCCCC(=O)CCc1ccc(O)c(OC)c1 [Compound 3, 4,5-dihydro-6-shogaol] | – | -/11.0 ± 0.7% | – | – | 2.1 ± 1 µM | 9.43 ± 0.16 µM | 45.2 ± 2.7 µM | – | – | – |
| CCCCCCCC(CCc1ccc(O)c(OC)c1)=NO [Compound 4, 1-(4-hydroxy-3-methoxyphenyl)decan-3-one oxime] | – | -/4.0 ± 11.1% | – | – | 5.2 ± 0.4 µM | 8.56 ± 0.07 µM | 75.1 ± 7.3 µM | – | – | – |
| CCCCC[C@H](O)C[C@H](O)CCc1ccc(O)c(OC)c1 [Compound 5, (3R,5S)-1-(4-hydroxy-3-methoxyphenyl)decane-3,5-diol] | 3.39 ×10⁻⁶ cm/s | 9.1 ± 7.6% | ≥ 25 ·10^−7 cm/s | – | 51.7 ± 2.7 µM | 6.51 ± 0.28 µM | – | – | – | – |
| CCCCC[C@H](O)C[C@@H](O)CCc1ccc(O)c(OC)c1 [Compound 6, (3S,5S)-1-(4-hydroxy-3-methoxyphenyl)decane-3,5-diol] | 2.74 ± 0.16 ×10⁻⁶ cm/s | 18.5 ± 2.7% | ≥ 25 ·10^−7 cm/s | – | 45.1 ± 6 µM | 13.82 ± 0.03 µM | – | – | – | – |
| CCCCCc1cc(CCc2ccc(O)c(OC)c2)[nH]n1 [Compound 14, 2-methoxy-4-(2-(3-pentyl-1H-pyrazol-5-yl)ethyl)phenol] | 1.58 ± 0.08 ×10⁻⁶ cm/s | 33.6 ± 4.6% | – | – | 4.1 ± 1.2 µM | 16.2 ± 0.46 µM | 277 ± 5.5 µM | – | – | – |
| CCCCCc1cc(CCc2ccc(O)cc2)[nH]n1 [Compound 15, 4-(2-(3-pentyl-1H-pyrazol-5-yl)ethyl)phenol] | 2.07 ± 0.43 ×10⁻⁶ cm/s | 3.1 ± 5.7% | – | – | > 100 µM | > 200 µM | 203 ± 5.5 µM | inactive | – | – |
| CCCCCc1cc(/C=C/c2ccc(O)cc2)[nH]n1 [Compound 16, (E)-4-(2-(3-pentyl-1H-pyrazol-5-yl)vinyl)phenol] | – | – | – | – | 3.5 ± 0.9 µM | 19 ± 1.63 µM | 89.4 ± 3.1 µM | – | – | – |
| CCCCCc1cc(/C=C/c2ccc(O)c(OC)c2)on1 [Compound 17, (E)-2-methoxy-4-(2-(3-pentylisoxazol-5-yl)vinyl)phenol] | – | – | – | – | 3.1 ± 0.9 µM | 8.13 ± 0.21 µM | 10.9 ± 2 µM | – | – | – |
| CCCCCc1cc(/C=C/c2ccc(O)cc2)on1 [Compound 18, (E)-4-(2-(3-pentylisoxazol-5-yl)vinyl)phenol] | – | – | – | – | 32 ± 10.1 µM | > 100 µM | – | inactive | < LOD | – |
| CCCCCCCNC(=O)CCc1ccc(O)c(OC)c1 [Compound 22] | 3.22 ± 0.34 ×10⁻⁶ cm/s | 12.1 ± 5.2% | ≥ 25 ·10^−7 cm/s | – | 35.9 ± 23.7 µM | 14.1 ± 0.21 µM | – | – | – | only moderate activity |
